Results on two compounds are retold here after US5948792A, “Fluorine-containing 1,4-disubstituted piperidine derivatives” (Banyu Pharmaceutical Co., Ltd., priority 1996, dated 1999).

Test [1] has as its system Muscarinic M3 Receptor. The test is described as follows: Bronchodilation in dogs (p.o.), methacholine provocation test. Type of test: in vivo, dog. Conditions: beagle dogs, 1 mg/kg p.o., 4 hours after administration. The method, then: (§1) Tests for Antagonism Against Muscarinic M3 Receptor (in vivo)
2) Tests for Bronchodilation in Dogs (p.o.)
Twelve- to twenty-four-months-old male beagle dogs (weighing 10-15 kg) were anesthetized with pentobarbital (30 mg/kg, i.v.) and intubated in their bronchus. Their airway sensitivity to inhaled methacholine were measured at least twice at two-weeks interval, and the dogs showing a reproducible methacholine reaction threshold values^1) ware selected. To those dogs whose methacholine reaction threshold value had been confirmed, the test compounds were orally administered (1 mg/kg). Four hours after the administration, the methacholine provocation test was conducted, and then the methacholine reaction threshold value^2) after administration of the test compound was obtained.
The bronchodilator activity of the test compound was determined following equation: [formula]
The methacholine provocation test was conducted using Astograph TCK-6100H Model (Chest). Methacholine chloride was used as bronchoconstritor, which was diluted with isotonic sodium chloride solution in 10-grade concentration levels starting from 40,000 μg/ml, as 20,000, 10,000, 5,000, 2,500, 1,250, 625, 312.5, 156 and 78 μg/ml. These methacholine aerosols were inhaled to the test animal each for 1 min, starting from the lowest concentration level, and respiration resistance was continuously recorded. The concentration level at which the respiration resistance reached twice the initial value was recorded as the methacholine threshold value.

In a further test the target is T1, M2 receptor (Rattus norvegicus, UniProt P10980).
T1 construct: the right atrium was isolated; from tissue; host or cells: isolated right atrium of male SD strain rat
T1 sequence (P10980 1-466): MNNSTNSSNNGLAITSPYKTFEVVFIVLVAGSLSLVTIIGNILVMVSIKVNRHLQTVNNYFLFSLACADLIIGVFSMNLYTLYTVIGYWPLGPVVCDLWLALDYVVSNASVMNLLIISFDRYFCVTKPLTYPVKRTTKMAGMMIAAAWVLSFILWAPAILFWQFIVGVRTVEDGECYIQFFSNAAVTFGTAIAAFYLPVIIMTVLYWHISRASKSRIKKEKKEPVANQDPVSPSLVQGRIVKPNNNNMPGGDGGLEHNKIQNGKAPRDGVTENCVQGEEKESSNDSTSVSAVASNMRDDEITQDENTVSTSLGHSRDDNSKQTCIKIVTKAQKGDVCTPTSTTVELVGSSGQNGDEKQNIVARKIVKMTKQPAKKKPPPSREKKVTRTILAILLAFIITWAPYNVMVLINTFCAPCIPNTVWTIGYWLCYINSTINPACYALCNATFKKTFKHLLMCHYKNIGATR
The test is described as follows: Antagonism to M2 receptor in an isolated rat right atrium (in vitro). Type of test: cell-based. As to conditions: carbachol-induced decrease in heart rate. The protocol:
Tests for Antagonism to Muscarinic Receptors (in vitro)
1) Tests for Antagonism to M2 receptor in an Isolated Rat Right Atrium
These tests were performed according to a conventional method. A male SD strain rat (weighing 300-500 g) was killed by exsanguination, and the right atrium was isolated. This preparation was isometrically suspended in organ bath filled with 20 ml of Krebs-Henseleit solution (gassed with 95% O2 -5% CO2 and kept at 32° C.) with an initial tension of 0.5 g. The heart rate was recorded with a heart rate counter. After the preparation was equilibrated for 30 minutes, carbachol (10^-9 to 10^-6 M) was cumulatively administered in three-fold increasing doses. Thus, a decrease in heart rate was measured to obtain a dose-response curve for the control experiment. After the preparation was washed with fresh solution to restore the heart rate, a test compound was administered thereto. Ten minutes later, carbachol was cumulatively administered again. Responses to carbachol were expressed as percentages based on the heart rate before administration of carbachol as 100%. The antagonistic potency (KB value) of the test compound was determined from the degree of shift of the dose-response curve obtained by treatment with individual test compound of the present invention.

In test [2] the target is T2, Muscarinic M3 Receptor (Rattus norvegicus, UniProt P08483).
T2 construct: male rats of the Sprague-Dawley strain; from tissue; host or cells: airways of living male Sprague-Dawley rats (in vivo)
Briefly: Bronchodilation in rats (i.v.), inhibition of acetylcholine-induced increase in airway resistance. It is filed as in vivo. As to conditions: iv, 5 min, acetylcholine 50 μg/kg i.v. 5 minutes after test compound, read-out: Inhibition of Airway Contraction ED50 iv. The method, then: as §1
1-A) Tests for Bronchodilation in Rats (i.v.).
Eight- to eleven-weeks-old male rats of the Sprague-Dawley strain, weighing 380-420 g, were anesthetized with urethane (750 mg/kg. i.p.) and α-chloralose (37.5 mg/kg, i.p.). The bronchus of each rat was intubated, and the right jugular vein was cannulated for drug administration. […] To evoke an increase in airway resistance, acetylcholine (50 μg/kg, i.v.) was administered to the animals. The acetylcholine-induced airway resistance increase was measured 5 minutes before and 5 minutes after administration of test compound, and the ratio of the airway resistance of the latter to the former was calculated. In controls, isotonic sodium chloride solution was used in place of the test compounds and otherwise identical procedures were repeated, the calculated ratio being set to be 100%.

The target of test [3] is T2, Muscarinic M3 Receptor. The test is described as follows: Bronchodilation in rats (p.o.), inhibition of acetylcholine-induced increase in airway resistance. Type of test: in vivo. As to conditions: po, 1 h, acetylcholine 50 μg/kg i.v. 60 minutes after test compound, read-out: Inhibition of Airway Contraction ED50 po. The method, then: as §1
1-B) Tests for Bronchodilation in Rats (p.o.)
Eight- to eleven-weeks-old male rats of Sprague-Dawley strain weighing 380-420 g were orally administered with a test compound. The rats were treated in the identical manner as in the i.v. test, starting 30 minutes after the administration, and their airway resistance values were measured. The acetylcholine-(50 μg/kg, i.v.) induced airway resistance increase were measured 60 minutes after the administration of test compounds. In controls, isotonic sodium chloride solution was used in place of the test compounds and otherwise identical procedures were repeated, the ratio between the two airway resistance values whereby being set to be 100%.

Structures are written as SMILES.

T2 sequence (P08483 whole entry): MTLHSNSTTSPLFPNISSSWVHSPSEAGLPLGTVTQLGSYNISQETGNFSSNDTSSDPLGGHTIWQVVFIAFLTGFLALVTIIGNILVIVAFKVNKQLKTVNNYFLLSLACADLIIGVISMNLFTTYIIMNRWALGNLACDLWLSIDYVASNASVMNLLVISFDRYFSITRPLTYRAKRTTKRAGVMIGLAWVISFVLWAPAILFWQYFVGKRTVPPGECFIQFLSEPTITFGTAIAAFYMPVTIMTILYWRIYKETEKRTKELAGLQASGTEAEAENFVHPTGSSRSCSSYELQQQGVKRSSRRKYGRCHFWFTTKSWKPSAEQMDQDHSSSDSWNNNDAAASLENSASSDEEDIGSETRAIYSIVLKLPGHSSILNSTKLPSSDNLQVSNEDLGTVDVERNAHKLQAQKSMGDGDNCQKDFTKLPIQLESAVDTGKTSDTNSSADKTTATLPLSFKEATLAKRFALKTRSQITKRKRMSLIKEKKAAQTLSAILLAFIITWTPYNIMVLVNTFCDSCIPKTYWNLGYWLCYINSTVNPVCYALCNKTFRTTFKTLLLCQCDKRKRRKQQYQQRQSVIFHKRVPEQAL

In general, Kb refers to the equilibrium dissociation constant of an antagonist, usually derived from a functional assay. Low readings indicate higher antagonist affinity, high ones lower antagonist affinity. One may read the ED50 as the dose that gives a 50% effect, or the effect in half of the subjects. Take `O=C(NC1CCN(Cc2ccsc2)CC1)[C@](O)(c1ccccc1)[C@@H]1CCC(F)(F)C1` [Example 11, (2R)-N-[1-(3-thienylmethyl)piperidin-4-yl]-2-[(1R)-3,3-difluorocyclopentyl]-2-hydroxy-2-phenylacetamide]: the “Methacholine Inhalation-inducing Test shift value (after 4 hrs.)” value with Muscarinic M3 Receptor [1] amounted to 21. Besides, the Kb on M2 receptor is 0.61 µM. The ED50 at Muscarinic M3 Receptor [2] worked out at 0.032 mg/kg; on Muscarinic M3 Receptor [3] it was 0.22 mg/kg.
Turning to `Cl.Cl.Nc1cccc(CN2CCC(NC(=O)[C@](O)(c3ccccc3)[C@@H]3CCC(F)(F)C3)CC2)n1` [Example 20, (2R)-N-[1-(6-aminopyridin-2-ylmethyl)piperidin-4-yl]-2-[(1R)-3,3-difluorocyclopentyl]-2-hydroxy-2-phenylacetamide dihydrochloride], the “Methacholine Inhalation-inducing Test shift value (after 4 hrs.)” value in the test on Muscarinic M3 Receptor [1] was greater than 69. The Kb at M2 receptor came out at 2.1 µM. Besides, the ED50 on Muscarinic M3 Receptor [2] came out at 0.04 mg/kg; on Muscarinic M3 Receptor [3], 0.37 mg/kg.
